Measurements from the NIST ThermoML archive (doi:10.1021/je700370z).
“And” between values parts separate entries of the source, which are not always exact repeats. Identical values can stand only once.

Conditions: Liquid; for viscosity: Falling or rolling sphere viscometry; for mass density: Vibrating tube method

CCCCn1cc[n+](C)c1.F[B-](F)(F)F [1-butyl-3-methylimidazolium tetrafluoroborate]
Conditions	mass density	viscosity
273.15 K, 100 kPa	1219.64 kg/m3	543 mPa·s and 542.8 mPa·s
273.15 K, 101.33 kPa	1219.5 kg/m3 and 1219.64 kg/m3	510.8 mPa·s and 511 mPa·s
278.15 K, 101.33 kPa	1215.79 kg/m3	353 mPa·s and 352.9 mPa·s
283.15 K, 100 kPa	1212.22 kg/m3	263.7 mPa·s and 263.8 mPa·s
283.15 K, 101.33 kPa	1212.07 kg/m3 and 1212.22 kg/m3	250.7 mPa·s and 250.6 mPa·s
283.15 K, 800 kPa	1212.53 kg/m3	266.3 mPa·s
283.15 K, 11000 kPa	1217.32 kg/m3	302.2 mPa·s
283.15 K, 24900 kPa	1223.58 kg/m3	359.1 mPa·s
283.15 K, 49600 kPa	1234.03 kg/m3	484.8 mPa·s
283.15 K, 75300 kPa	1244.07 kg/m3	655.9 mPa·s
283.15 K, 100600 kPa	1253.28 kg/m3	875 mPa·s
288.15 K, 101.33 kPa	1208.38 kg/m3	182.4 mPa·s
293.15 K, 100 kPa	1204.98 kg/m3	142.1 mPa·s and 142 mPa·s
293.15 K, 101.33 kPa	1204.83 kg/m3 and 1204.98 kg/m3	135.6 mPa·s and 135.7 mPa·s
298.15 K, 100 kPa	1201.43 kg/m3	108 mPa·s and 108.5 mPa·s and 108.7 mPa·s
298.15 K, 101.33 kPa	1201.29 kg/m3 and 1201.43 kg/m3	103.7 mPa·s [middle of 4 runs]
298.15 K, 500 kPa	1201.61 kg/m3	108.6 mPa·s
298.15 K, 25900 kPa	1213.76 kg/m3	142.6 mPa·s
298.15 K, 50800 kPa	1224.72 kg/m3	185 mPa·s
298.15 K, 75900 kPa	1234.94 kg/m3	239.8 mPa·s
298.15 K, 101100 kPa	1244.42 kg/m3	308.3 mPa·s
298.15 K, 126200 kPa	1253.22 kg/m3	393.9 mPa·s
298.15 K, 150600 kPa	1261.21 kg/m3	499.9 mPa·s
298.15 K, 150700 kPa	1261.23 kg/m3	500.6 mPa·s
298.15 K, 175400 kPa	1268.78 kg/m3	634.7 mPa·s
298.15 K, 200900 kPa	1276.07 kg/m3	808.3 mPa·s
303.15 K, 100 kPa	1197.88 kg/m3	84.6 mPa·s
303.15 K, 101.33 kPa	1197.75 kg/m3 and 1197.88 kg/m3	80.6 mPa·s and 80.7 mPa·s
313.15 K, 100 kPa	1190.78 kg/m3	53.5 mPa·s and 53.6 mPa·s
313.15 K, 101.33 kPa	1190.68 kg/m3	51.3 mPa·s
323.15 K, 100 kPa	1183.79 kg/m3	35.6 mPa·s
323.15 K, 101.33 kPa	1183.67 kg/m3 and 1183.79 kg/m3	34.6 mPa·s
323.15 K, 140 kPa	1183.79 kg/m3	36 mPa·s
323.15 K, 10495 kPa	1189.26 kg/m3	39.3 mPa·s
323.15 K, 25446 kPa	1196.8 kg/m3	44.5 mPa·s
323.15 K, 50493 kPa	1208.59 kg/m3	55.5 mPa·s
323.15 K, 75560 kPa	1219.46 kg/m3	68.1 mPa·s
323.15 K, 100566 kPa	1229.48 kg/m3	83.3 mPa·s
323.15 K, 125543 kPa	1238.76 kg/m3	101.5 mPa·s
323.15 K, 150422 kPa	1247.36 kg/m3	123.2 mPa·s
323.15 K, 175463 kPa	1255.42 kg/m3	149.2 mPa·s
323.15 K, 200347 kPa	1262.9 kg/m3	180.1 mPa·s
323.15 K, 225321 kPa	1269.94 kg/m3	216.9 mPa·s
323.15 K, 250139 kPa	1276.5 kg/m3	260.9 mPa·s
333.15 K, 100 kPa	1176.81 kg/m3	25.2 mPa·s and 25.5 mPa·s
333.15 K, 101.33 kPa	1176.7 kg/m3 and 1176.81 kg/m3	24.5 mPa·s
343.15 K, 100 kPa	1169.87 kg/m3	18.4 mPa·s and 18 mPa·s
343.15 K, 101.33 kPa	1169.79 kg/m3	18.1 mPa·s
348.15 K, 100 kPa	1166.45 kg/m3	16.2 mPa·s and 15.9 mPa·s
348.15 K, 101.33 kPa	1166.45 kg/m3	–
348.15 K, 11700 kPa	1172.95 kg/m3	17.4 mPa·s
348.15 K, 25200 kPa	1180.23 kg/m3	19.4 mPa·s
348.15 K, 50700 kPa	1192.94 kg/m3	23.3 mPa·s
348.15 K, 75600 kPa	1204.4 kg/m3	27.8 mPa·s
348.15 K, 100600 kPa	1214.97 kg/m3	33 mPa·s
348.15 K, 125600 kPa	1224.72 kg/m3	38.8 mPa·s
348.15 K, 150600 kPa	1233.78 kg/m3	45.6 mPa·s
348.15 K, 175600 kPa	1242.2 kg/m3	53.4 mPa·s
348.15 K, 200600 kPa	1250.04 kg/m3	62.3 mPa·s
348.15 K, 225500 kPa	1257.34 kg/m3	72.6 mPa·s
348.15 K, 250400 kPa	1264.17 kg/m3	84.6 mPa·s
348.15 K, 275300 kPa	1270.59 kg/m3	98.4 mPa·s
348.15 K, 300000 kPa	1276.57 kg/m3	114 mPa·s
353.15 K, 101.33 kPa	1162.92 kg/m3	13.9 mPa·s and 13.8 mPa·s
360.15 K, 101.33 kPa	1158.27 kg/m3	–
362.76 K, 101.33 kPa	1156.51 kg/m3	–
363.15 K, 101.33 kPa	1156.11 kg/m3	–
363.16 K, 101.33 kPa	1156.22 kg/m3	–
